Test results: patent US20250009896A1, “SUPR[…] BASED VIRAL […] CAPTURE FOR PREVENTION AND THERAPY OF VIRAL INFECTION” (The Johns Hopkins University, priority 2023, published 2025)
Residues, ends and D or L forms follow the SMILES beside them. *: point of attachment. Lauroyl = CCCCCCCCCCCC(=O)*

What was measured:
[1] = Critical micelle concentration by Nile Red assay; format: physicochemical; settings: MilliQ water pH=7.4, Nile Red assay
Description: Using a Nile Red assay, the CMC of each PA monomer (Filler and Ligand) and their co-assembly (1:1 molar ratio) was determined. Nile Red dye intensely fluoresces within hydrophobic environments but is strongly quenched and red-shifted in aqueous environments. Thus, when mixed with PAs at a concentration exceeding the CMC, Nile Red will embed within the hydrophobic core and emit a strong fluorescence signal. A 500 μM stock solution of Nile Red was prepared in acetone, and 10 μL of the stock was added to microcentrifuge tubes. Acetone was evaporated off in the dark. Solutions of the samples (500 μL, water) were added to the tubes at varied concentrations and were aged for 2 days in the dark at room temperature. Samples were added to a quartz micro fluorometer cell (0.7 mL, 10 mm pathlength, Starna Cells, Atascadero, CA), and at an excitation wavelength of 550 nm, five parallel emission spectra were recorded at a wavelength range of 580 to 720 nm on a Duetta UV-Vis-NIR spectrofluorometer (HORIBA Scientific). The emission intensity ratio for each run at 635 nm (emission maximum of Nile Red in a hydrophobic environment) to 660 nm (emission maximum of Nile Red in a hydrophilic environment) was plotted against tested concentrations to obtain a transition curve from which CMC was determined.

[2] = biological target: Recombinant human angiotensin-converting enzyme 2 (ACE2) (Homo sapiens, UniProt Q9BYF1); experiment: ACE2 activity assay with fluorogenic peptide substrate Mca-YVADAPK(Dnp)-OH; settings: 50 nM ACE2; 1 mM Filler or 50 μM Ligand
Chain of Recombinant human angiotensin-converting enzyme 2 (ACE2) (Q9BYF1 18-740): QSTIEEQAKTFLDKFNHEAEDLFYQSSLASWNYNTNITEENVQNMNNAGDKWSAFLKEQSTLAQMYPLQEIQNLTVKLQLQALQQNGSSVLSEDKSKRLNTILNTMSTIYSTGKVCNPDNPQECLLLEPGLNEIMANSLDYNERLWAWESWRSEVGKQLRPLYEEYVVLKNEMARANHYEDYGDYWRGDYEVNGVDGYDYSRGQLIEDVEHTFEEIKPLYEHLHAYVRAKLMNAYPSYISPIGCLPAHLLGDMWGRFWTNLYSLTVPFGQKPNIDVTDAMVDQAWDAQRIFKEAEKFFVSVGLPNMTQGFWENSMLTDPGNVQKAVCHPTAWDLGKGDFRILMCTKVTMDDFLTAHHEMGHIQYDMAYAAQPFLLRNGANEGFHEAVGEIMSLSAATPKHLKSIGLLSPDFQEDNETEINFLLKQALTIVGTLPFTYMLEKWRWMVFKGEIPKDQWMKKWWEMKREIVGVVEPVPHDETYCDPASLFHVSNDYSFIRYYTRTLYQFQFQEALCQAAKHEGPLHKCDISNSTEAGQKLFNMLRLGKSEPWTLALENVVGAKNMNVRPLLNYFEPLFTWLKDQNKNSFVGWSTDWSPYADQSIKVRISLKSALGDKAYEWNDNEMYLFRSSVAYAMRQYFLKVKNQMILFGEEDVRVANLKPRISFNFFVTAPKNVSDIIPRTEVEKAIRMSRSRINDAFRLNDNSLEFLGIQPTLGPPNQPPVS

[3] = system: SARS-CoV PsV; format: cell-based
[4] = system: VSVG PsV; format: cell-based, vesicular stomatitis virus
[5] = system: SARS-CoV-2 PsV; format: cell-based; settings: 0.5 nM ACE2 dose
[6] = biological target: T1, ACE2 (Homo sapiens, UniProt Q9BYF1); settings: ACE2 inhibitor; cited from earlier work
T1 sequence (Q9BYF1 18-805): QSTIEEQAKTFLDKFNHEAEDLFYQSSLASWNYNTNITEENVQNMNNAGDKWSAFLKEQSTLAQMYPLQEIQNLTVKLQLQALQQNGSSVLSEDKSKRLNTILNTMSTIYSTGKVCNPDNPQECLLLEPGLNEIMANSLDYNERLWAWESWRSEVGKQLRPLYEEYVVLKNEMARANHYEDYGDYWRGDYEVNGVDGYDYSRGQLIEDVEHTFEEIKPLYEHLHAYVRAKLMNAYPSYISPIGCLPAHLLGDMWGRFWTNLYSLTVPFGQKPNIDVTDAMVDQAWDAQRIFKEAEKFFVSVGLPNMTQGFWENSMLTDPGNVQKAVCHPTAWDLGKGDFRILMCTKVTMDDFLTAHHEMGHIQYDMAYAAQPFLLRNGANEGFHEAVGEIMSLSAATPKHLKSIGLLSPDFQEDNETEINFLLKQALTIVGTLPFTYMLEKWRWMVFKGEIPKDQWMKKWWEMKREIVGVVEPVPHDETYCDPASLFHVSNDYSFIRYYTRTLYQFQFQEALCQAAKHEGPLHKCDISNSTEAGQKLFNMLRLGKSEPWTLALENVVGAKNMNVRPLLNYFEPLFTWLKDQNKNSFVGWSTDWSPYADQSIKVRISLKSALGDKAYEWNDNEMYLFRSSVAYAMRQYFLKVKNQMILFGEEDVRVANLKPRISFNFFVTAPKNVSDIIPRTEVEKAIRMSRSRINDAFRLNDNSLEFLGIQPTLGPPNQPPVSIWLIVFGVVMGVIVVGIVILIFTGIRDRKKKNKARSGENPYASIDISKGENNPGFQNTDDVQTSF

[7] = biological target: T1, ACE2; settings: cited from earlier work

For `CCCCCCCCCCCC(=O)N[C@H](C(=O)N[C@H](C(=O)N[C@H](C(=O)NCC(=O)N[C@@H](CCC(=O)O)C(=O)N[C@@H](CCC(=O)O)C(N)=O)C(C)C)C(C)C)C(C)C` [Filler] (Lauroyl-VVVGEE-NH2), the “critical micelle concentration (CMC)” value [1] was “around 2.9 μM” and the “impact on ACE2 activity / initial velocity” value [2] was “slight impact on ACE2 activity”.
With “ACE2: Recombinant human angiotensin-converting enzyme 2 (ACE2) protein (carrier-free), R&D Systems” the “SARS-CoV PsV infection inhibition” value [3] was “strongly inhibited”, the “VSVG PsV infection inhibition (dose-dependent strong inhibition trend)” value [4] was “not observed” and the “incubation time at which inhibition becomes identical to / indistinguishable from empty filaments” value [5] was ≤ 6 h.
For “non-cleavable peptidic ACE2 inhibitor GDYSHCSPLRYYPWWKCTYPDPEGGG (SEQ ID NO: 5/16) [DX600]”, the Ki [6] is given as 2.8 nM and the Kd [7] is given as 10.1 nM.
